Laboratory results from ChEMBL document CHEMBL6078624, “Structure-based discovery of a 4,5-Dihydropyrazole-cored PET ligand for imaging of receptor-interacting serine/threonine-protein kinase 1 (RIPK1) in the brain” (Eur J Med Chem, 2024).

Experiments:
[1] = Biodistribution in male ICR mouse blood at 0.74 MBq, iv administered into tail vein pre-treated with GSK'547 followed by compound addition by automatic gamma counter analysis relative to baseline; assay type: ADME, organism-based; details: in vivo
[2] = Biodistribution in male ICR mouse blood at 0.74 MBq, iv administered into tail vein pre-treated with WL8 followed by compound addition by automatic gamma counter analysis relative to baseline; assay type: ADME, organism-based; details: in vivo
[3] = Biodistribution in male ICR mouse brain at 0.74 MBq, iv administered into tail vein pre-treated with GSK'547 followed by compound addition by automatic gamma counter analysis relative to baseline; assay type: ADME, organism-based; details: in vivo
[4] = Biodistribution in male ICR mouse brain at 0.74 MBq, iv administered into tail vein pre-treated with WL8 followed by compound addition by automatic gamma counter analysis relative to baseline; assay type: ADME, organism-based; details: in vivo
[5] = Biodistribution in male ICR mouse heart at 0.74 MBq, iv administered into tail vein pre-treated with GSK'547 followed by compound addition by automatic gamma counter analysis relative to baseline; assay type: ADME, organism-based; details: in vivo
[6] = Biodistribution in male ICR mouse heart at 0.74 MBq, iv administered into tail vein pre-treated with WL8 followed by compound addition by automatic gamma counter analysis relative to baseline; assay type: ADME, organism-based; details: in vivo
[7] = Biodistribution in male ICR mouse liver at 0.74 MBq, iv administered into tail vein pre-treated with GSK'547 followed by compound addition by automatic gamma counter analysis relative to baseline; assay type: ADME, organism-based; details: in vivo
[8] = Biodistribution in male ICR mouse liver at 0.74 MBq, iv administered into tail vein pre-treated with WL8 followed by compound addition by automatic gamma counter analysis relative to baseline; assay type: ADME, organism-based; details: in vivo
[9] = Biodistribution in male ICR mouse spleen at 0.74 MBq, iv administered into tail vein pre-treated with GSK'547 followed by compound addition by automatic gamma counter analysis relative to baseline; assay type: ADME, organism-based; details: in vivo
[10] = Biodistribution in male ICR mouse spleen at 0.74 MBq, iv administered into tail vein pre-treated with WL8 followed by compound addition by automatic gamma counter analysis relative to baseline; assay type: ADME, organism-based; details: in vivo
[11] = Biodistribution in male ICR mouse lung at 0.74 MBq, iv administered into tail vein pre-treated with GSK'547 followed by compound addition by automatic gamma counter analysis relative to baseline; assay type: ADME, organism-based; details: in vivo
[12] = Biodistribution in male ICR mouse lung at 0.74 MBq, iv administered into tail vein pre-treated with WL8 followed by compound addition by automatic gamma counter analysis relative to baseline; assay type: ADME, organism-based; details: in vivo
[13] = Biodistribution in male ICR mouse kidney at 0.74 MBq, iv administered into tail vein pre-treated with GSK'547 followed by compound addition by automatic gamma counter analysis relative to baseline; assay type: ADME, organism-based; details: in vivo
[14] = Biodistribution in male ICR mouse kidney at 0.74 MBq, iv administered into tail vein pre-treated with WL8 followed by compound addition by automatic gamma counter analysis relative to baseline; assay type: ADME, organism-based; details: in vivo
[15] = Biodistribution in male ICR mouse pancreas at 0.74 MBq, iv administered into tail vein pre-treated with GSK'547 followed by compound addition by automatic gamma counter analysis relative to baseline; assay type: ADME, organism-based; details: in vivo
[16] = Biodistribution in male ICR mouse pancreas at 0.74 MBq, iv administered into tail vein pre-treated with WL8 followed by compound addition by automatic gamma counter analysis relative to baseline; assay type: ADME, organism-based; details: in vivo
[17] = Biodistribution in male ICR mouse muscle tissue at 0.74 MBq, iv administered into tail vein pre-treated with GSK'547 followed by compound addition by automatic gamma counter analysis relative to baseline; assay type: ADME, organism-based; details: in vivo
[18] = Biodistribution in male ICR mouse muscle tissue at 0.74 MBq, iv administered into tail vein pre-treated with WL8 followed by compound addition by automatic gamma counter analysis relative to baseline; assay type: ADME, organism-based; details: in vivo
[19] = Biodistribution in male ICR mouse bone at 0.74 MBq, iv administered into tail vein pre-treated with GSK'547 followed by compound addition by automatic gamma counter analysis relative to baseline; assay type: ADME, organism-based, Bone element; details: in vivo
[20] = Biodistribution in male ICR mouse bone at 0.74 MBq, iv administered into tail vein pre-treated with WL8 followed by compound addition by automatic gamma counter analysis relative to baseline; assay type: ADME, organism-based, Bone element; details: in vivo
[21] = Biodistribution in male ICR mouse stomach at 0.74 MBq, iv administered into tail vein pre-treated with GSK'547 followed by compound addition by automatic gamma counter analysis relative to baseline; assay type: ADME, organism-based; details: in vivo
[22] = Biodistribution in male ICR mouse stomach at 0.74 MBq, iv administered into tail vein pre-treated with WL8 followed by compound addition by automatic gamma counter analysis relative to baseline; assay type: ADME, organism-based; details: in vivo
[23] = Biodistribution in male ICR mouse small intestine 0.74 MBq, iv administered into tail vein pre-treated with GSK'547 followed by compound addition by automatic gamma counter analysis relative to baseline; assay type: ADME, organism-based; details: in vivo
[24] = Biodistribution in male ICR mouse small intestine at 0.74 MBq, iv administered into tail vein pre-treated with WL8 followed by compound addition by automatic gamma counter analysis relative to baseline; assay type: ADME, organism-based; details: in vivo
[25] = Biodistribution in male ICR mouse brain at 0.74 MBq, iv administered into tail vein pre-treated with WL8 at 6 mg/kg followed by compound addition by automatic gamma counter analysis; assay type: ADME, organism-based; details: in vivo
[26] = Biodistribution in male ICR mouse brain at 0.74 MBq, iv administered into tail vein pre-treated with WL8 at 2 mg/kg followed by compound addition by automatic gamma counter analysis; assay type: ADME, organism-based; details: in vivo
[27] = Biodistribution in male ICR mouse blood at 0.74 MBq, iv administered into tail vein pre-treated with WL8 followed by compound addition by automatic gamma counter analysis; assay type: ADME, organism-based; details: in vivo
[28] = Biodistribution in male ICR mouse blood at 0.74 MBq, iv administered into tail vein pre-treated with GSK'547 followed by compound addition by automatic gamma counter analysis; assay type: ADME, organism-based; details: in vivo
[29] = Biodistribution in male ICR mouse bone at 0.74 MBq, iv administered into tail vein pre-treated with GSK'547 followed by compound addition by automatic gamma counter analysis; assay type: ADME, organism-based, Bone element; details: in vivo
[30] = Biodistribution in male ICR mouse small intestine at 0.74 MBq, iv administered into tail vein pre-treated with GSK'547 followed by compound addition by automatic gamma counter analysis; assay type: ADME, organism-based; details: in vivo
[31] = Drug degradation in male mouse brain assessed as parent compound remaining at 26.6 MBq by radio-HPLC analysis; assay type: ADME, tissue-based
[32] = Drug degradation in male mouse plasma assessed as parent compound remaining at 26.6 MBq by radio-HPLC analysis; assay type: ADME, cell-free
[33] = Drug degradation in male mouse liver assessed as parent compound remaining at 26.6 MBq by radio-HPLC analysis; assay type: ADME, tissue-based

## Cc1ccc(C2CC=NN2C(=O)C2CCN(C(=O)c3cccc([18F])n3)CC2)cc1F (stereo not drawn)
[1]
  Drug uptake: Active
[2]
  Drug uptake: Active
[3]
  Drug uptake: Active
[4]
  Drug uptake: Active
[5]
  Drug uptake: Active
[6]
  Drug uptake: Active
[7]
  Drug uptake: Active
[8]
  Drug uptake: Active
[9]
  Drug uptake: Active
[10]
  Drug uptake: Active
[11]
  Drug uptake: Active
[12]
  Drug uptake: Active
[13]
  Drug uptake: Active
[14]
  Drug uptake: Active
[15]
  Drug uptake: Active
[16]
  Drug uptake: Active
[17]
  Drug uptake: Active
[18]
  Drug uptake: Active
[19]
  Drug uptake: Not_active
[20]
  Drug uptake: Not_active
[21]
  Drug uptake: Active
[22]
  Drug uptake: Active
[23]
  Drug uptake: Not_active
[24]
  Drug uptake: Not_active
[25]
  Drug uptake: 129%
[26]
  Drug uptake: 58%
[27]
  Drug uptake: > 58%
[28]
  Drug uptake: > 58%
[29]
  Drug uptake: > 29%
[30]
  Drug uptake: > 27%
[31]
  Stability: 35.2%
[32]
  Stability: 10.8%
[33]
  Stability: 13.6%
